These results are taken from PMC10436262, “Structure-Based Design of Inhibitors of the m^6A-RNA Writer Enzyme METTL3” (ACS Bio & Med Chem Au, 2023).

The structures appear in SMILES notation. Where “and” joins values, the source holds several entries; their conditions need not be identical. Identical values can stand only once. Like-named read-outs stand apart in the source and are kept apart here. Bounds are passed on as bounds.

One experiment concerns the target T1, METTL16 (Homo sapiens, UniProt Q86W50).
T1 sequence (Q86W50 1-562): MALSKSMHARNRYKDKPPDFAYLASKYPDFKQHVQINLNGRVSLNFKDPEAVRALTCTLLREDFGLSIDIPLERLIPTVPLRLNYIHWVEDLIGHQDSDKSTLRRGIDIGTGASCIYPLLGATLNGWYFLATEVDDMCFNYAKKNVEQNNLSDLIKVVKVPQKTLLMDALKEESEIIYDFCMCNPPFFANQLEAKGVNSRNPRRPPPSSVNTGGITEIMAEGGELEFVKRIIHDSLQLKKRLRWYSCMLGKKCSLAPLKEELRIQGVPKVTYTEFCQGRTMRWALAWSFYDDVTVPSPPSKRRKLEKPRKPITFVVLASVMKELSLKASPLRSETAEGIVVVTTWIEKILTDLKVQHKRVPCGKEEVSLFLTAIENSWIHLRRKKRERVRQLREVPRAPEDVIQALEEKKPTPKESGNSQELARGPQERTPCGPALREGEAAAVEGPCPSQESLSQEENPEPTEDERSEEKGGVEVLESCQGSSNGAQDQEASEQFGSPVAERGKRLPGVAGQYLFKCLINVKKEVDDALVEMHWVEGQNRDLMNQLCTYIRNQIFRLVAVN
The experiment in a line: Thermal shift assay. It is filed as binding. On the procedure: (§1) METTL1 mediates the formation of N7-methylguanine in a subset of RNA species, such as tRNAs, mRNAs, and microRNAs, whereas METTL16 is able to N6-methylate a subset of mRNAs and U6 small nuclear RNAs.[23],[24] The co-product of methyl transfer catalysis, S-adenosyl-L-homocysteine (SAH), was used as a positive control in the thermal shift assay. […] Compound 54 at 200 μM was able to shift the melting curve of METTL3/METTL14 by 1.8 °C compared to the DMSO control (Figure S4).
(§2) The protein sample was buffered in 25 mM HEPES (pH 7.4) and 150 mM NaCl and assayed in a 96-well plate at a final concentration of 2 μM in 20 μL volume. The SYPRO Orange dye was added as a fluorescence probe at a dilution of 1:1000. The compound 54 concentrations tested were 10, 50, 100, and 200 μM, while the SAH concentrations tested were 100, 500, 1000, and 2000 μM. The temperature was raised with a step of 0.5 °C starting from 20 to 80 °C, and fluorescence readings were taken at each interval. The reported values (ΔTm) are calculated as the difference between the transition midpoints of an individual sample and the average of the reference wells (containing the protein and the DMSO only) in the same plate. The DMSO concentration was kept at 1% (v/v).

Experiment [1] addresses T2, METTL3/METTL14 (Homo sapiens, UniProt Q86U44).
T2 construct: made in house; host or cells: Sf9 insect cells (baculovirus)
The experiment can be described thus: Thermal shift assay. It is filed as binding. Particulars: vs DMSO control. As for the experimental part: as §1, §2

The next experiment concerns the target METTL1 (Homo sapiens, UniProt Q9UBP6). The experiment in a line: Thermal shift assay. It is filed as binding. On the procedure:
as §1, §2

In experiment [2] the test system is m^6A/A level in MOLM-13 cells. More on the design: method as in PMID 34237194. Particulars: read-out: IC50 for m^6A/A reduction; cited from earlier work.
Experiment [3] deals with T2, METTL3/METTL14. The experiment in a line: METTL3 enzymatic inhibition assay by homogeneous time-resolved fluorescence (HTRF). It is filed as biochemical. To be noted: for IC50: HTRF assay. On the procedure: Compound potencies were evaluated by using a previously reported METTL3 inhibition assay. […] Tested compounds that inhibit METTL3 decrease the m^6A level and thus reduce the HTRF signal. The biochemical assay was performed, as described previously.[19] The IC50 values derived from fitting a dose–response curve to the data using nonlinear regression. The IC50 values are given as an average of at least two independent measurements for each compound in the text.

A further experiment concerns MOLM-13 cells. The experiment in a line: Antiproliferative activity / cytotoxicity (GI50), CellTiter-Glo. It is filed as cell-based. On the procedure:
We then decided to evaluate the cellular potency of inhibitor 54. The antiproliferative activity on MOLM-13, which is an acute myeloid leukemia cell line, was measured using a previously published protocol with a 3-day incubation time.[10]
MOLM-13 cells were cultured in RPMI 1640 medium containing 10% Gibco FBS and 1% penicillin/streptomycin (complete medium) in 5% CO2 at 37 °C in a humidified incubator, with maintained cell densities at 0.6–2 × 10^6 cells/mL.
Cells were seeded in white clear-bottom 96-well plates at a density of 2 × 10^4 cells/well in 50 μL of the complete RPMI medium and treated with 50 μL increasing concentrations of compound 54 dissolved in DMSO (final concentration of compounds 1.25–160 μM) or DMSO only (0.5% (v/v)) as a negative control and incubated for 72 h at 37 °C with 5% CO2. Cell viability was determined using a CellTiter-Glo luminescent cell viability assay (Promega G7570) based on the detection of ATP according to the manufacturer’s instructions. […] The luminescence was recorded using a Tecan Infinite […] M1000 microplate reader from the top. The background luminescence value was obtained from wells containing the CellTiter-Glo reagent and medium without cells. Cell viability curves were plotted in GraphPad Prism 9 and fitted with nonlinear regression, from which GI50 values were determined.
In general terms: Cellular ATP, detected with luciferase, serves as a proxy for viable cell number.

Where [4] appears, read: SAH at 2000 μM, vs DMSO control.
Setting [5] is: racemic mixture, read-out: IC50.

T2 sequence (Q86U44 whole entry): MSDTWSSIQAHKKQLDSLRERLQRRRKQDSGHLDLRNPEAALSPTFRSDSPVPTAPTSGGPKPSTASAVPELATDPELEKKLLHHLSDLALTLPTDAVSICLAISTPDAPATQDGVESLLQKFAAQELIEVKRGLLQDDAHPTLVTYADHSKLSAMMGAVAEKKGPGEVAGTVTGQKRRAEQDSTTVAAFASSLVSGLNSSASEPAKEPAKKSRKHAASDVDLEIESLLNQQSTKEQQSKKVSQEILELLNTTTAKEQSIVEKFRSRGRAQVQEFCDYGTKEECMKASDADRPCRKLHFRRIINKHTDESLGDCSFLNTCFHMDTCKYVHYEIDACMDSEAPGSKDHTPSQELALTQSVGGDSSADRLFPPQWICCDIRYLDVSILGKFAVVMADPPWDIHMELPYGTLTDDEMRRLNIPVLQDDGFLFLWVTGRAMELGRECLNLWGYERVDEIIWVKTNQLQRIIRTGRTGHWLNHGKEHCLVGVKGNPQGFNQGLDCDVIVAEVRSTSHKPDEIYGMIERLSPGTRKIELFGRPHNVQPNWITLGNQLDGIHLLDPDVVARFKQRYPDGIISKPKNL
T2 sequence (Q9HCE5 whole entry partner): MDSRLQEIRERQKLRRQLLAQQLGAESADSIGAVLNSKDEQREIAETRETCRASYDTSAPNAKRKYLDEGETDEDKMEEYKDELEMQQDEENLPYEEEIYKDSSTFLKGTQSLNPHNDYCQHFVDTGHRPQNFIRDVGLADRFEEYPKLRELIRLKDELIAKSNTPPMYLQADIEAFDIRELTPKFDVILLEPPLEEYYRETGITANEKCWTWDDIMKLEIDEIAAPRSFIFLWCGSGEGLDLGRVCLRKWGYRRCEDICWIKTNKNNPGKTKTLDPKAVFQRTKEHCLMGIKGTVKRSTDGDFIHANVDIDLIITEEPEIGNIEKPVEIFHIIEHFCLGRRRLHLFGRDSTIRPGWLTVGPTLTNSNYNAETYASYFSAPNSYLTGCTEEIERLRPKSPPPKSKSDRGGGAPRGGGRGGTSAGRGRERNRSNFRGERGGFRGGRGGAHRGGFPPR
Chain of METTL1 (Q9UBP6 whole entry, species assumed): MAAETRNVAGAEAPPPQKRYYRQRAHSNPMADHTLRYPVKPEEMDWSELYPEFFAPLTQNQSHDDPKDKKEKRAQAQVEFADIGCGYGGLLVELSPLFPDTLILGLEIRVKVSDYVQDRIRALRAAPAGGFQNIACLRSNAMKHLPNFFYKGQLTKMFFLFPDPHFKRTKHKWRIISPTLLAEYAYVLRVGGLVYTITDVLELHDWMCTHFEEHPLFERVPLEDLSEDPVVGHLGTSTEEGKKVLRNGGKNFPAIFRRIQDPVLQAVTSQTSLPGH

Consider `Nc1ncnc2c1ncn2[C@@H]1O[C@H](CSCC[C@H](N)C(=O)O)[C@@H](O)[C@H]1O` [SAH, S-adenosyl-L-homocysteine, reference compound], for which the results for the ΔTm on METTL16 (setting [4]), on METTL3/METTL14 [1] (SAH at 2000 μM) and at METTL1 (setting [4]) were 2.5 °C, 4.05 °C and 8.75 °C, respectively.

With `CC1(C)CCN(Cc2ccc(C(=O)NC[C@]3(O)CCCN(c4cc(NCc5ccccc5)ncn4)C3)c(O)c2)CC1` [UZH1a], in experiment [2], the IC50 was 4.6 µM.

Consider `CC(C)C1N(Cc2ccc(C(=O)NCC3(O)CCCN(c4cc(NCc5ccccc5)ncn4)C3)cc2)CC12CCC2` (centres unmarked) [compound 30], for which the IC50 on METTL3/METTL14 [3] (setting [5]) came to 0.13 µM.

Turning to `CC1(O)CCN(Cc2ccc(C(=O)NCC3(O)CCCN(c4cc(NCc5ccccc5)ncn4)C3)cc2)CC1` (centres unmarked) [compound 24], the IC50 at METTL3/METTL14 [3] (setting [5]) is 8.4 µM.

For `CCCN(Cc1ccc(C(=O)NCC2(O)CCCN(c3cc(NCc4ccccc4)ncn3)C2)cc1)C1CCCC1` (centres unmarked) [compound 37], at METTL3/METTL14 [3] (setting [5]), the IC50 was over 10 µM.

For `CC(C)(C)CNCc1ccc(C(=O)NCC2(O)CCCN(c3cc(NCc4ccccc4)ncn3)C2)cc1` (centres unmarked) [compound 35], the IC50 at METTL3/METTL14 [3] (setting [5]) came out at 5 µM.

`CC(C)C1N(Cc2ccc3c(NCC4(O)CCCN(c5cc(NCc6ccccc6)ncn5)C4)cccc3c2)CC12CCC2` (centres unmarked) [compound 54, 1-(6-(benzylamino)pyrimidin-4-yl)-3-(((6-((1-isopropyl-2-azaspiro[3.3]heptan-2-yl)methyl)naphthalen-1-yl)amino)methyl)piperidin-3-ol]: in the experiment on MOLM-13 cells (Homo sapiens, MOLM-13, 3-day (72 h) incubation, average of two biological replicates), it took 6 µM to inhibit growth by half (GI50). The “factor by which cellular GI50 is higher than biochemical IC50” value with MOLM-13 cells (MOLM-13 GI50 vs HTRF IC50) was “about 100”. Moreover, the IC50 at METTL3/METTL14 [3] (setting [5]) was 0.054 µM. Besides, on METTL3/METTL14 [3] (matched pair 46:54), the “fold improvement in affinity (IC50) vs compound 46” value is recorded as 6.7 fold. In addition, the “ΔTm (shift of melting curve)” value on METTL16 (compound up to 200 μM) and at METTL1 (compound up to 200 μM) was “No shift” in each case. At METTL3/METTL14 [1] (compound at 200 μM, read-out: ΔTm (shift of melting curve)), the ΔTm at 200 µM worked out at 1.8 °C.

As to `CC1(C)CCN(Cc2ccc3c(NCC4(O)CCCN(c5cc(NCc6ccccc6)ncn5)C4)cccc3c2)CC1` (centres unmarked) [compound 46], the IC50 came to 0.2 µM on METTL3/METTL14 [3] (R isomer, read-out: IC50 (µM) R); 12 µM on METTL3/METTL14 [3] (S isomer, read-out: IC50 (µM) S); 0.36 µM on METTL3/METTL14 [3] (setting [5]). In addition, on METTL3/METTL14 [3] (ratio of IC50 of S isomer to R isomer), the “S/R Ratio” value amounted to 60.0. Also, on METTL3/METTL14 [3] (relative to reference compound 16), the “fold improvement in affinity (IC50) vs compound 16” value is 5 fold and 4.7 fold.
